Assay results published in US20180362531A1, “NOVEL KYNUREININE PATHWAY INHIBITORS” (STANDARD LLC, priority 2017, published 2018).

Legend:
Format in all cases: biochemical
Human IDO1 His-Tag = biological target: T1, Human IDO1 His-Tag (Homo sapiens, UniProt P14902); experiment: IDO1 Inhibitor Screening Assay (BPS Bioscience kit, absorption at 321 nm); details: room temperature, 3 hours; N.D. = Not Detected
T1 construct: purchased BPS Bioscience
Method: IDO1 (indoleamine 2,3-dioxygenase-1) catalyzes the oxidative cleavage of the pyrrole ring of tryptophan to yield N′-formylkynurenine. The amount of N′-formylkynurenine product is able to be detected by the absorption at the wavelength of 321 nm. IDO1 inhibitor Screening Assay kit (BPS Bioscience) was used to test the compound. The assay was performed as described in the assay protocol.
IDO1 reaction solution (90 μl) was aliquoted into each well of a 96-well plate. 5 μl of the compound solution in 10% DMSO was added to each well. 5 μl 10% DMSO was added to the positive control and blank wells. Human IDO1 His-Tag was diluted to 40 ng/μl in 1×IDO1 Assay buffer. The reaction was initiated by adding 5 μl of diluted IDO1. In the blank well, only 1×IDO1 assay buffer was added instead. After incubating at room temperature for 3 hours, the absorption was measured at the wavelength of 321 nm using a microplate reader.
(§1) The relative activity, I, was the ratio of former to later, i.e. X/Y, expressed in percentile. The IC50 was the concentration of the compounds when X/Y equals 50 and calculated based on the dose-response curve.

Human IDO2 His-Tag = biological target: T2, Human IDO2 His-Tag (Homo sapiens, UniProt Q6ZQW0); experiment: IDO2 Inhibitor Screening Assay (BPS Bioscience kit, absorption at 321 nm); details: room temperature, 3 hours
T2 construct: purchased BPS Bioscience
T2 sequence (Q6ZQW0 1-407): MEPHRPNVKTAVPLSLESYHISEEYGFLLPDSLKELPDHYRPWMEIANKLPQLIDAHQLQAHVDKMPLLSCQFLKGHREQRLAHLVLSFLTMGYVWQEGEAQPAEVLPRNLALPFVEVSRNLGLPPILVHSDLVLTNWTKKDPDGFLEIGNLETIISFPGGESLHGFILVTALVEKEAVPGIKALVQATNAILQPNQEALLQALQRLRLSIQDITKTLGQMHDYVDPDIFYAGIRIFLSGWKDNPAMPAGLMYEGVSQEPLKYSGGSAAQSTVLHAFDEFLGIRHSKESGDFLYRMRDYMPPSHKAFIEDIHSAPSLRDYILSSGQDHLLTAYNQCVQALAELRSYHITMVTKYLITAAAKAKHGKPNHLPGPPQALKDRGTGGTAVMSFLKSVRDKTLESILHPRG
Method: To evaluate the selectivity of IDO inhibition for Compounds Nos. D42 and D46, an assay to measure activity against IDO2 was performed. The IDO2 Inhibitor Screening Assay kit (BPS Bioscience) was used for IDO2 test. The protocol is similar to IDO1 assay. IDO2 reaction solution (90 μl) was aliquoted into each well of a 96-well plate. 5 μl of compound solution in 10% DMSO was added to each well. 5 μl 10% DMSO was added to the positive control and blank wells. Human IDO2 His-Tag was diluted in 1×IDO2 Assay buffer at 400 ng/μl. The reaction was initiated by adding 5 μl diluted IDO2. 1×IDO2 assay buffer to the blank well. After incubating at room temperature for 3 hours, the absorption was measured at the wavelength of 321 nm. The IC50 was calculated as described for IDO2.
as §1, with “The test compound inhibition was measured as X-fold. The control solution (DMSO) was measured as Y-fold. The relative” for “The relative”

Human TDO His-Tag = biological target: T3, Human TDO His-Tag (Homo sapiens, UniProt P48775); experiment: TDO Inhibition Screening Assay (BPS Bioscience kit, absorption at 321 nm); details: room temperature, 1.5 hours
T3 construct: purchased BPS Bioscience
T3 sequence (P48775 whole entry): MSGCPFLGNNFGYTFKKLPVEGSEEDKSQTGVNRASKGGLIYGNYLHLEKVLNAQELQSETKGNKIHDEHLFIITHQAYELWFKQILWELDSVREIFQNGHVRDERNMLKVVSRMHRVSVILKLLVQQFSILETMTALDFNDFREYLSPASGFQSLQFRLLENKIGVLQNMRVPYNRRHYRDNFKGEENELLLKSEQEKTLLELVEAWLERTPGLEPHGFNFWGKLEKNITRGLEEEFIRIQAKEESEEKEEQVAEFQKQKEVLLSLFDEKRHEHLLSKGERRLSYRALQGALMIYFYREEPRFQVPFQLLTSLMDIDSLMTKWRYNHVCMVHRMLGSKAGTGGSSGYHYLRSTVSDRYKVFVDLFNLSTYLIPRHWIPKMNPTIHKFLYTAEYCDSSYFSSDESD
Method: The TDO inhibitor Screening Assay kit (BPS Bioscience) was used to test for TDO inhibition by Compound Nos. D42 and D46. The protocol is similar to IDO1 assay. TDO reaction solution (90 μl) was aliquoted into each well of a 96-well plate. 5 μl of compound solution in 10% DMSO was added to each well. 5 μl 10% DMSO was added to the positive control and blank wells. Human TDO His-Tag was diluted in 1×TDO Assay buffer at 50 ng/μl. The reaction was initiated by adding 5 μl diluted TDO. 1×TDO assay buffer was added to the blank well. After incubating at room temperature for 1.5 hours, the absorption was measured at the wavelength of 321 nm. The IC50 was calculated as described for TDO inhibition. The relative activity and IC50 was calculated as described above in Examples 3 and 4.

T1 sequence (P14902 whole entry): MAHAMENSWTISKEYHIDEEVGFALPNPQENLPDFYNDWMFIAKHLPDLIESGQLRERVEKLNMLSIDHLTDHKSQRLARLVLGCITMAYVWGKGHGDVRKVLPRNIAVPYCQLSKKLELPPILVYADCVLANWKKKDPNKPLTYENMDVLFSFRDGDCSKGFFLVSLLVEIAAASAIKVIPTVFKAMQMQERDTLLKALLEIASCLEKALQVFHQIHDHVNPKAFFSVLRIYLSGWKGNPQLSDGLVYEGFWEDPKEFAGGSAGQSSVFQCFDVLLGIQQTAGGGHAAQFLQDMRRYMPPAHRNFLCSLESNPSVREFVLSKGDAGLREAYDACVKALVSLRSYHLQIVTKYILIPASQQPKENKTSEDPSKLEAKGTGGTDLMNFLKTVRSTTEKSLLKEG

| Compound | IC50 (Human IDO1 His-Tag) [nM] | IDO2 inhibition (Human IDO2 His-Tag) | IC50 (Human TDO His-Tag) [µM] |
| --- | --- | --- | --- |
| N#Cc1ccc(NC(=O)NCC2c3ccccc3-c3cncn32)cc1 (stereo not drawn) [D42, 1-((5H-imidazo[5,1-a]isoindol-5-yl)methyl)-3-(4-cyanophenyl)urea] | 61 | No IDO2 inhibition was detected | 0.064 |
| N#Cc1ccc(NC(=O)NCCC2c3ccccc3-c3cncn32)cc1 (stereo not drawn) [D46, 1-(2-(5H-imidazo[5,1-a]isoindol-5-yl)ethyl)-3-(4-cyanophenyl)urea] | 325 | No IDO2 inhibition was detected | 0.064 |
